The results in this text go back to patent US8551952B2, “Methods for the treatment and prevention of ocular disorders” (Scynexis, Inc., priority 2006, dated 2013).

In one series the test system is TNF-α. The settings on record: read-out: Approximate IC50 for cytokine production TNF-α; human T-lymphocytes stimulated with anti-CD3/anti-CD28 beads, 24 hours; average of cultures of two donors.
For another series, the system named is IL4. The settings on record: read-out: Approximate IC50 for cytokine production IL4; human T-lymphocytes stimulated with anti-CD3/anti-CD28 beads, 24 hours; average of cultures of two donors.
A further series relates to IL2. The settings on record: read-out: Approximate IC50 for cytokine production IL2; human T-lymphocytes stimulated with anti-CD3/anti-CD28 beads, 24 hours; average of cultures of two donors.
In the next series the test system is IFN-γ. To be noted: read-out: Approximate IC50 for cytokine production IFN-γ; human T-lymphocytes stimulated with anti-CD3/anti-CD28 beads, 24 hours; average of cultures of two donors.
The test system of series [1] is T-cell proliferation (T-cells isolated from mouse spleens). To be noted: read-out: IC50 MLR; C57BL/6 responder and irradiated BALB/c stimulator spleen cells, 5 days.
Method: Murine Mixed Lymphocyte Response (MLR) assay: This assay monitored T-cell proliferation by measurement of tritiated thymidine incorporation into DNA of T-cells isolated from mouse spleens; T-cell proliferation is directly proportional to tritium incorporation into DNA. Pooled spleen cells were prepared from three mice each of two strains: three C57BL/6 and three BALB/c mice. The C57BL/6 mice were used as the Responders (R) and BALB mice were the Stimulators (S) in the MLR. Complete medium consisted of RPMI 1640 supplemented with 25 mM HEPES, 10% heat-inactivated low background fetal bovine serum, 50 μM 2-mercatoethanol, 2 mM L-glutamine, and antibiotics.
The BALB/c spleen cells were gamma irradiated at 3000 Roentgen in a Bevill irradiator and washed once with medium to use as S cells; the stock of S cells was 1.6×10^6/mL in complete medium. The R cells were stocked at 8×10^5/mL in complete medium. Final cell densities were 2×10^5 R and 4×10^5 S per test well in a 96-well microtiter plate. Compounds were diluted from a 10 mM stock solution in DMSO into culture medium; compounds were tested at 10 concentrations between 0.001 and 30 μM (three-fold dilutions).
Background control wells contained 150 μL of medium/0.3% DMSO and 50 μL of R cells (2×10^5/well). All other wells contained 100 μL of medium/0.3% DMSO or compound (also in 0.3% DMSO), 50 μL of R cells (2×10^S/well), and 50 μL of S cells (4×10^5/well). Plates were incubated at 37° C. in 5% CO2 for 5 days, and subsequently pulsed with 1 μCi/well of 3H-thymidine for 6-18 hours. Cells were harvested, and tritium incorporation was measured using a scintillation counter.
Series [2] relates to chorio-allantoic membranes (CAM) of fertilized chicken eggs. To be noted: for Classification: HET-CAM classification of irritation potential; for Total Score: HET-CAM, sum of scores, average across eggs.
Method: In this test, chorio-allantoic membranes (CAM) of fertilized chicken eggs are exposed to a solution of the test substance in sterile water. During an incubation period of approximately 5 minutes, irritancy is assessed by visual inspection of the CAM blood vessel network for haemorrhage, lysis and/or coagulation. The time of onset or appearance of each of these effects is scored numerically, the scores are summed to give a single numerical value, and an average numerical score across several eggs is obtained.
The conditions of series [3]: artificial tear formulation.
Method: The solubilities of compounds in artificial tear formulations were determined using turbidimetric titration (Schote, et al., 2002. J Pharm Sciences 91(3):856). The different tear formulations are buffered and contain various physiological electrolytes including, sodium, potassium, phosphate, and chloride. The formulations differ primarily in the “active” ingredients that provide lubrication and viscosity.
A further series concerns eyes of rabbits. The settings on record: 0.05% (w/w) in an artificial tear formulation, instillation in right eyes over three days.
The mark [4] stands for this setting: HET-CAM score, approximately 5 minutes incubation.

Where two headings read alike, the source gives them in different places.

Method for IFN-γ: (§1) Assays with human cells are used to determine if compounds I) inhibit T-cell activation (using cytokine release as a biomarker), and 2) reduce or prevent cytokine-induced pathologies.
(§2) Compounds were incubated with stimulated human T-lymphocytes in an in vitro system designed to measure cytokine production; cytokine production is indicative of T-cell activation and consequential cytokine-induced damage in vivo. […] Cells were treated in triplicate with compounds or vehicle (DMSO) in cell culture medium for 2 hours at 37 deg C. Cells were then stimulated with 5 μL of anti-CD3/anti-CD28 ExpandBeads (DynaBeads, Invitrogen 111.31) and incubated for 24 hours. Compounds were tested at three concentrations: 0.02, 0.2 and 2 μM. Untreated controls were performed for each cytokine marker. The following cytokines were quantitatively determined using specific ELISA kits, according to manufacturer instructions: IL2 (Eli-pair, Diaclone), IL4 (ImmunoTools 313.300.49), tumor necrosis factor alpha (TNFα, ImmunoTools 313.330.1), and Interferon gamma (IFN-γ) Eli-pair, Diaclone).
Method for IL2: as §1, §2
Method for IL4: as §1, §2
Method for TNF-α: as §1, §2
Method for eyes of rabbits: The compounds of the invention were evaluated for tolerability upon instillation in the eyes of rabbits over a three day test period. Rabbits receive five instillations within 20 minutes of fifty microliters of a solution of the test substance in vehicle once on Day 1, twice on Day 2 and four times on Day 3 in the right eyes. Evaluation of ocular irritancy was performed using the Draize scale (Draize et al. J. Pharmacol. Exp. Ther. 1944. 82: 377).

For orientation: IC50 means the point on the concentration scale where inhibition reaches its midpoint. With “3-[2-(morpholin-4-yl)ethoxy]cyclosporin [F]”, the IC50 in the series with TNF-α is about 200 nM; in the series with IL4 it was about 200 nM; with IL2 it was about 20 nM; with IFN-γ, about 200 nM; in series [1], 500 nM.

On to `CC=CCC(C)C(O)C1C(=O)NC(CC)C(=O)N(C)C(OCCN2CCCCC2)C(=O)N(C)C(CC(C)C)C(=O)NC(C(C)C)C(=O)N(C)C(CC(C)C)C(=O)NC(C)C(=O)NC(C)C(=O)N(C)C(CC(C)C)C(=O)N(C)C(CC(C)C)C(=O)N(C)C(C(C)C)C(=O)N1C` (stereo not shown) [D, 3-[2-(piperidin-1-yl)ethoxy]cyclosporin], for which the IC50 in the series on TNF-α was about 2000 nM; in the series with IL4, about 2000 nM; with IL2, about 1000 nM; with IFN-γ, about 1000 nM; in series [1], 200 nM. For the same molecule, the Classification result in series [2] is listed as “Slightly irritant”. In series [2] (setting [4]), this molecule came in with a Coagulation of 0. For the same molecule, in series [2] (setting [4]), the Haemorhage stood at 0. For the same molecule, in series [2] (setting [4]), the Lysis was found to be 3. Moreover, in series [2], the “Total Score” value is 3.0.

Consider `C/C=C/C[C@@H](C)[C@@H](O)[C@H]1C(=O)N[C@@H](CC)C(=O)N(C)C(OCCN(C)C)C(=O)N(C)[C@@H](CC(C)C)C(=O)N[C@@H](C(C)C)C(=O)N(C)[C@@H](CC(C)C)C(=O)N[C@@H](C)C(=O)N[C@H](C)C(=O)N(C)[C@@H](CC(C)C)C(=O)N(C)[C@@H](CC(C)C)C(=O)N(C)[C@@H](C(C)C)C(=O)N1C` (stereo partly shown) [Compound A, 3-[2-(N,N-dimethylamino)ethoxy]cyclosporin], for which the IC50 in the series on TNF-α is about 2000 nM; in the series on IL4, about 2000 nM; in the series on IFN-γ it was about 2000 nM; in series [1] it was 200 nM. For the same molecule, the “Minimum Solubility” value was 151 µM in series [3] (pH 6.2, Polyethylene glycol 400 (1%), Polyvinyl alcohol (1%)); 350 µM in series [3] (pH 6.7 (adjusted with HCl from 7.4), Dextran 70 (0.1%), Hydroxypropyl methyl-cellulose 2910 (0.3%)); 130 µM in series [3] (pH 6.8, Carboxymethylcellulose sodium (0.5%)); 117 µM in series [3] (pH 7.3, Propylene Glycol (0.95%), Glycerin (0.3%)); 141 µM in series [3] (pH 7.4, Dextran 70 (0.1%), Hydroxypropyl methyl-cellulose 2910 (0.3%)). For the same molecule, in series [2], the Classification entry is reported as “Slightly irritant”. This molecule yielded a Lysis in series [2] (setting [4]) of 3.5. The “Total Score” value in series [2] worked out at 3.5. Besides, the “Ocular tolerability (Draize scale)” value with eyes of rabbits is given as “very well tolerated”.
